Like-named read-outs stand apart in the source and are kept apart here.

Consider 24 compounds from article PMC12154443, “Design, Synthesis, Anti-Tumor Activity and Molecular Docking Studies of Novel Triphenylphosphine-Containing Formononetin Derivatives” (International Journal of Molecular Sciences, 2025).

Data set [1] has as its system human embryonic kidney cells (HEK-293). Kind of data set: MTT cell viability assay, normal HEK-293 cells. Type of data set: cell-based. The settings on record: HEK293, 48 h, read-out: half inhibitory concentration (IC50), HEK-293. The method, then: (§1) The human embryonic kidney cells (HEK-293), human non-small-cell lung cancer (A549), human breast cancer cells (MCF-7), and human prostate cancer (PC-3M) cells used in this study were obtained from the Beijing BNCC Biotechnology Research Institute (Beijing, China), and human gastric cancer cells (HGC-27) were obtained from Dalian Meilun Biotechnology Co., Ltd. (Dalian, China).
(§2) The cell lines used in this study (A549, MCF-7, PC-3M, HGC-27, HEK-293) were removed from the CO2 incubator and seeded into 96-well plates at a density of 5 × 10^4/mL. Following a 24-h incubation period under standard CO2 conditions, we added […] of sample solutions at various concentrations ([…], 12.5, 25, 50, 100 μmol/L) to each well. Each concentration was tested in six replicates. The control group received 0.1% DMSO in serum-free medium (SFM). After 48 h of the drug effect, 10 µL of MTT solution was added to each well under light-avoidance conditions, and incubation was continued under light-avoidance conditions for 4 h; the supernatant was discarded, and 150 μL of DMSO was added to dissolve the resulting formazan crystals. After 10 min of shaking to ensure the complete dissolution and uniform color development of purple crystals, the absorbance (OD) was measured at 490 nm using a microplate reader.
(§3) The inhibition rate was calculated as: Inhibition rate (%) = [(OD value of control group-OD value of administered group)/(OD value of control group-OD value of zeroing group)] × 100%, where OD value of zeroing group represents the zeroing group.
(§4) The IC50 values of the drugs were calculated by fitting using GraphPad Prism v.6.01 (GraphPad Software, San Diego, CA, USA), and it was used as a criterion for selecting the appropriate drug concentration for subsequent experiments.

For data set [2], the system named is human gastric cancer cells (HGC-27). Kind of data set: MTT cell viability assay, HGC-27. Type of data set: cell-based. The settings on record: 48 h, HGC-27 cells, read-out: half inhibitory concentration (IC50), HGC-27. The method, then: as §1, §2, §3, §4
Data set [3] deals with human non-small-cell lung cancer (A549). The data set is described as follows: MTT cell viability assay, A549. Type of data set: cell-based. The settings on record: A549 cells; for IC50: Homo sapiens, MTT, 48 h, read-out: half inhibitory concentration (IC50), A549; for increase in cytostatic effect relative to formononetin: from IC50 values. The method, then: The human embryonic kidney cells (HEK-293), human non-small-cell lung cancer (A549), human breast cancer cells (MCF-7), and human prostate cancer (PC-3M) cells used in this study were obtained from the Beijing BNCC Biotechnology Research Institute (Beijing, China), and human gastric cancer cells (HGC-27) were obtained from Dalian Meilun Biotechnology Co., Ltd. (Dalian, China). […] Each concentration was tested in six replicates. The control group received 0.1% DMSO in serum-free medium (SFM). […] The inhibition rate was calculated as: Inhibition rate (%) = [(OD value of control group-OD value of administered group)/(OD value of control group-OD value of zeroing group)] × 100%, where OD value of zeroing group represents the zeroing group.

Data set [4] relates to human prostate cancer (PC-3M) cells. Kind of data set: MTT cell viability assay, PC-3M. Type of data set: cell-based. The settings on record: 48 h, read-out: half inhibitory concentration (IC50), PC-3M. The procedure: as §1, §2, §3, §4
The subject of data set [5] is human breast cancer cells (MCF-7). The data set is described as follows: MTT cell viability assay, MCF-7. The format is cell-based. The procedure: as §1, §2, §3, §4
Data set [6] in a line: Solubility observed during the experimental process. Type of data set: physicochemical. The settings on record: room temperature, formononetin in water, methanol, ethanol, acetone, tetrahydrofuran, ethyl acetate, dichloromethane, chloroform, derivatives in acetate. The procedure:
Therefore, using procedures reported in the previous studies, we employed a molar ratio of 1:3 between the intermediate and triphenylphosphine. […] For the synthesis of fatty acid esters, dichloromethane was employed as the reaction solvent, and a 1.5-fold molar excess of the corresponding acid was added. The reaction was conducted over a 1–4 h period, which enabled the complete conversion of formononetin and maximum yield. […] The introduction of triphenylphosphine […].

The mark [7] stands for this setting: MCF7, 48 h, MCF-7 cells, read-out: half inhibitory concentration (IC50), MCF-7.
Where [8] appears, read: MCF7, MCF-7 cells, read-out: IC50 against MCF-7 cells.

On to `COc1ccc(-c2coc3cc(OC(=O)CCCCCBr)ccc3c2=O)cc1` [1a, 7-O-(6-bromohexanoyl)-formononetin], for which the IC50 in data set [1] stood at 83.4 ± 8.61 µM; in data set [2], 83.3 ± 8.32 µM.

Turning to `COc1ccc(-c2coc3cc(OC(=O)CCCCCCBr)ccc3c2=O)cc1` [1b, 7-O-(7-bromoheptanoyl)-formononetin], the figures for the IC50 in data set [1] and in data set [2] were 70.7 ± 5.61 µM and 79.1 ± 5.65 µM, respectively.

`COc1ccc(-c2coc3cc(OC(=O)CCCCCCCBr)ccc3c2=O)cc1` [1c, 7-O-(8-bromooctanoyl)-formononetin]: the figures for the IC50 in data set [1], in data set [3] and in data set [2] were 68 ± 5.33 µM, over 100 µM and 31.4 ± 4.93 µM, respectively.

In the case of `COc1ccc(-c2coc3cc(OC(=O)CCCCCCCCBr)ccc3c2=O)cc1` [1d, 7-O-(9-bromononanoi)-formononetin], the values for the IC50 in data set [1], in data set [3] and in data set [2] were 74.4 ± 4.28 µM, 86.2 ± 6.1 µM and 79.2 ± 9.27 µM, respectively.

As for `COc1ccc(-c2coc3cc(OC(=O)CCCCCCCCCBr)ccc3c2=O)cc1` [1e, 7-O-(10-bromodecanoyl)-formononetin], the IC50 in data set [1] was determined as 95.1 ± 7.97 µM; in data set [4] it was 84 ± 11 µM; in data set [3], 65.4 ± 5.01 µM; in data set [2] it was 66.1 ± 7.33 µM.

For the compound `COc1ccc(-c2coc3cc(OC(=O)CCCCCCCCCCBr)ccc3c2=O)cc1` [1f, 7-O-(11-bromoundecanoyl)-formononetin], the values for the IC50 in data set [1], in data set [3] and in data set [2] were 95.7 ± 8.09 µM, 74.6 ± 11.4 µM and 55.6 ± 2.43 µM, respectively.

As to `COc1ccc(-c2coc3cc(OC(=O)CCCCCCCCCCCBr)ccc3c2=O)cc1` [1g, 7-O-(12-bromododecanoyl)-formononetin], the IC50 was 59.9 ± 7.79 µM in data set [1], over 100 µM in data set [4], 53.6 ± 5.15 µM in data set [3] and 95.5 ± 6.23 µM in data set [2].

Take `COc1ccc(-c2coc3cc(OC(=O)CCCCC[P+](c4ccccc4)(c4ccccc4)c4ccccc4)ccc3c2=O)cc1` [2a, 7-O-(6-bromohexanoyl)-formononetin-triphenylphosphine coupling]: the IC50 stood at 72.8 ± 6.25 µM in data set [5] (setting [7]); 44.8 ± 2.39 µM in data set [1]; 55.2 ± 4.4 µM in data set [4]; 28.8 ± 2.45 µM in data set [3]; 13.4 ± 2.77 µM in data set [2].

With `COc1ccc(-c2coc3cc(OC(=O)CCCCCC[P+](c4ccccc4)(c4ccccc4)c4ccccc4)ccc3c2=O)cc1` [2b, 7-O-(7-bromoheptanoyl)-formononetin-triphenylphosphine coupling], the IC50 in data set [5] (setting [7]) came to 46.5 ± 4.94 µM; in data set [1], 46.2 ± 3.99 µM; in data set [4] it was 69.2 ± 3.98 µM; in data set [3] it was 42.2 ± 3.69 µM; in data set [2] it was 32.1 ± 5.96 µM.

On to `COc1ccc(-c2coc3cc(OC(=O)CCCCCCC[P+](c4ccccc4)(c4ccccc4)c4ccccc4)ccc3c2=O)cc1` [2c, 7-O-(8-bromooctanoyl)-formononetin-triphenylphosphine coupling], for which the IC50 in data set [5] (setting [7]) amounted to 42.6 ± 9.44 µM; in data set [1] it was 77 ± 8.26 µM; in data set [4] it was 21.7 ± 1.25 µM; in data set [3], 12.2 ± 1.52 µM; in data set [2], 18.6 ± 1.6 µM. Further, the “increase in cytostatic effect relative to formononetin” value in data set [3] is recorded as about 7 fold.

As for `COc1ccc(-c2coc3cc(OC(=O)CCCCCCCC[P+](c4ccccc4)(c4ccccc4)c4ccccc4)ccc3c2=O)cc1` [2d, 7-O-(9-bromononanoyl)-formononetin-triphenylphosphine coupling], the IC50 in data set [5] (setting [7]) came to 56.8 ± 4.04 µM; in data set [1] it was 47 ± 8.41 µM; in data set [4], 67 ± 6.97 µM; in data set [3], 31.2 ± 4.4 µM; in data set [2], 29.1 ± 2.58 µM.

On to `COc1ccc(-c2coc3cc(OC(=O)CCCCCCCCC[P+](c4ccccc4)(c4ccccc4)c4ccccc4)ccc3c2=O)cc1` [2e, 7-O-(10-bromodecanoyl)-formononetin-triphenylphosphine coupling], for which the IC50 in data set [5] (setting [7]) came to 85.5 ± 4.99 µM; in data set [1], 64 ± 3.47 µM; in data set [4] it was 97.9 ± 6.33 µM; in data set [3], 39 ± 1.65 µM; in data set [2] it was 39.2 ± 2.68 µM.

As to `COc1ccc(-c2coc3cc(OC(=O)CCCCCCCCCC[P+](c4ccccc4)(c4ccccc4)c4ccccc4)ccc3c2=O)cc1` [2f, 7-O-(11-bromoundecanoyl)-formononetin-triphenylphosphine coupling], the IC50 in data set [5] (setting [7]) was 52.3 ± 6.85 µM; in data set [1] it was 51.7 ± 5.48 µM; in data set [4], 27.9 ± 2.69 µM; in data set [3] it was 20.6 ± 1.21 µM; in data set [2], 30.4 ± 2.12 µM. Also, in data set [3], the “increase in cytostatic effect relative to formononetin” value was about 7 fold.

For the compound `COc1ccc(-c2coc3cc(OC(=O)CCCCCCCCCCC[P+](c4ccccc4)(c4ccccc4)c4ccccc4)ccc3c2=O)cc1` [2g, 7-O-(12-bromododecanoyl)-formononetin-triphenylphosphine coupling], the IC50 in data set [5] (setting [7]) turned out to be 46.6 ± 4.95 µM; in data set [1], 59.6 ± 5.65 µM; in data set [4], 41.2 ± 4.4 µM; in data set [3], 23.6 ± 2.25 µM; in data set [2], 29.4 ± 2.52 µM. For the same compound, the “increase in cytostatic effect relative to formononetin” value in data set [3] was about 7 fold.

In the case of `CCCCCC(=O)Oc1ccc2c(=O)c(-c3ccc(OC)cc3)coc2c1` [3a, 7-O-hexanoyl-formononetin], the IC50 in data set [4] amounted to 62 ± 8.71 µM; in data set [2], 49.5 ± 3.35 µM.

For `CCCCCCC(=O)Oc1ccc2c(=O)c(-c3ccc(OC)cc3)coc2c1` [3b], the IC50 in data set [3] was found to be 96.4 ± 7.37 µM; in data set [2], 65.4 ± 3.88 µM.

Take `CCCCCCCC(=O)Oc1ccc2c(=O)c(-c3ccc(OC)cc3)coc2c1` [3c, 7-O-octanoyl-formononetin]: the IC50 in data set [3] is 83 ± 5.89 µM; in data set [2], 60 ± 7.82 µM.

As to `CCCCCCCCC(=O)Oc1ccc2c(=O)c(-c3ccc(OC)cc3)coc2c1` [3d, 7-O-nonanoyl-formononetin], the IC50 worked out at 78.3 ± 9.74 µM in data set [1], 58.3 ± 5.36 µM in data set [4], 78.1 ± 6.21 µM in data set [3] and 80.2 ± 4.8 µM in data set [2].

Turning to `CCCCCCCCCC(=O)Oc1ccc2c(=O)c(-c3ccc(OC)cc3)coc2c1` [3e, 7-O-n-decanoyl-formononetin], the IC50 was 74 ± 11.9 µM in data set [3] and 48.6 ± 5.3 µM in data set [2].

As for `CCCCCCCCCCC(=O)Oc1ccc2c(=O)c(-c3ccc(OC)cc3)coc2c1` [3f, 7-O-undecanoyl-formononetin], the IC50 in data set [5] (setting [7]) came to 85 ± 5.74 µM; in data set [1], 75 ± 5.49 µM; in data set [4], 46.7 ± 9.24 µM; in data set [3], 70.1 ± 9.67 µM; in data set [2], 45.4 ± 5.24 µM.

In the case of `CCCCCCCCCCCC(=O)Oc1ccc2c(=O)c(-c3ccc(OC)cc3)coc2c1` [3g, 7-O-dodecanoyl-formononetin], the IC50 in data set [5] (setting [7]) was found to be 67.8 ± 8.92 µM; in data set [1], 50.4 ± 6.13 µM; in data set [4], 50.4 ± 5.78 µM; in data set [3], 66.9 ± 9.7 µM.

For `O=c1[nH]cc(F)c(=O)[nH]1` [5-FU, 5-fluorouracil, reference compound], the IC50 in data set [5] (setting [8]) is over 100 µM; in data set [1], over 100 µM; in data set [4], 48.1 ± 3.76 µM; in data set [3], 22.9 ± 3.54 µM; in data set [2], 36.2 ± 3.02 µM.

Consider `COc1cccc2c1C(=O)c1c(O)c3c(c(O)c1C2=O)C[C@@](O)(C(=O)CO)C[C@@H]3O[C@H]1C[C@H](N)[C@H](O)[C@H](C)O1` [DOX, doxorubicin, reference compound], for which the IC50 in data set [5] (setting [7]) came to 13.2 ± 0.43 µM; in data set [4], 0.168 ± 0.06 µM; in data set [3], 15.4 ± 1.06 µM; in data set [2] it was 5.97 ± 0.43 µM.

As to `COc1ccc(-c2coc3cc(O)ccc3c2=O)cc1` [FMN, formononetin], the IC50 in data set [5] (setting [8]) is over 100 µM; in data set [1] it was 39.6 ± 3.26 µM; in data set [4], 76.4 ± 6.47 µM; in data set [3] it was 83 ± 6.25 µM; in data set [2] it was 29.6 ± 1.17 µM. In addition, the “solubility (observation)” value in data set [6] was “almost no solubility”.
